For this test, the target named is T1, AHA2 central loop (recombinant His-AHA2 central loop) (Arabidopsis thaliana, UniProt P19456).
T1 construct: cytosolic central loop domain only, His-tagged recombinant, fluorescently labelled with NanoTemper RED protein labelling kit
T1 sequence (P19456 292-643 limits assumed): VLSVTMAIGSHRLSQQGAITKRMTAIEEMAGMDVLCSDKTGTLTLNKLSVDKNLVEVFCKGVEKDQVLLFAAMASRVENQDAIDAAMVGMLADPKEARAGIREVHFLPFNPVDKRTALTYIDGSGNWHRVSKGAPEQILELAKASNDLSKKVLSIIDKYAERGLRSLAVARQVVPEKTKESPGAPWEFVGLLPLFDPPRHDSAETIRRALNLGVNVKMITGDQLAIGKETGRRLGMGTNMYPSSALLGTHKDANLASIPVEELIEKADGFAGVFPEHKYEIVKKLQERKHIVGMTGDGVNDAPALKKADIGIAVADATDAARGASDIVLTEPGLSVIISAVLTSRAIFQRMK
Put plainly: microscale thermophoresis. Format: binding. (In MST a laser heats a spot of the sample, and binding alters the fluorescence response.)

As a reminder, the Kd is the equilibrium constant for the complex coming apart.

As for `O=C1NC(=S)S/C1=C\c1ccco1` [PS-1, (Z)-5-(furan-2-ylmethylene)-2-thioxothiazolidin-4-one], the dissociation constant Kd worked out at 4.88 ± 0.66 µM.
In the case of `O=C1NC(=S)S/C1=C\c1ccc[nH]1` [compound 27, (Z)-5-((1H-pyrrol-2-yl)methylene)-2-thioxothiazolidin-4-one], the Kd stood at 0.55 ± 0.05 µM.

Values taken from article PMC9597486, “Screening of protonstatin-1 (PS-1) analogs for improved inhibitors of plant plasma membrane H^+-ATPase activity” (Frontiers in Plant Science, 2022).
